Results on 19 molecules are retold here after patent US9815787B2, “Sulfonamide derivative or pharmaceutically acceptable acid addition salt thereof” (UNIVERSITY OF TSUKUBA, priority 2013, dated 2017).

The assay deals with T1, OX2R (Homo sapiens, UniProt O43614).
T1 construct: expressed in transfected cells; host or cells: CHO (Chinese hamster ovary) cells constitutively expressing the OX2R gene and NFAT-luciferase (CHOOX2R)
T1 sequence (O43614 1-444): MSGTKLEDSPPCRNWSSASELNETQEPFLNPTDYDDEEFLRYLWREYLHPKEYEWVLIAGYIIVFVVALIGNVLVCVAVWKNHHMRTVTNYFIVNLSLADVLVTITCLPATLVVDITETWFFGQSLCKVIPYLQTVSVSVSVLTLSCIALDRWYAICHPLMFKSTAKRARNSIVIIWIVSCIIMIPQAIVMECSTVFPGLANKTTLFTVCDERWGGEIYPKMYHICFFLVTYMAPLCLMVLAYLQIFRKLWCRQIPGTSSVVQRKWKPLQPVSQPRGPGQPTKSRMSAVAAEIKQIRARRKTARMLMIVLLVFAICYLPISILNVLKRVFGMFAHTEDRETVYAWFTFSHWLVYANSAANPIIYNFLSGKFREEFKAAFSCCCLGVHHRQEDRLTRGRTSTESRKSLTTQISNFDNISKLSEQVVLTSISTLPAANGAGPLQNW
Kind of assay: Evaluation of agonist activity against OX2R (CHOOX2R cells, Fura2AM fluorescence, FDSS3000). The class given is cell-based. The method in brief: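 CHO cells stably expressing human OX2R (and NFAT-luciferase), cultured 48 h in 5% FBS DMEM. Agonist response read as change in Fura2AM fluorescence on compound addition in HEPES buffer. Final compound concentrations 0.1, 1.0 or 10 μM; 1% DMSO.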

[1] abbreviates: test compound 0.1 μM; CHOOX2R cells; relative to orexin-A as full agonist (100%).
Where [2] appears, read: test compound 1.0 μM; CHOOX2R cells; relative to orexin-A as full agonist (100%).
Where [3] appears, read: test compound 10 μM; CHOOX2R cells; relative to orexin-A as full agonist (100%).
[4] abbreviates: OX2R agonist activity; CHOOX2R cells.
Where [5] appears, read: conversion with orexin-A as full agonist (maximum agonist activity 100%).
[6] abbreviates: test compound 0.1 μM; relative to orexin-A as full agonist (100%); CHOOX2R cells.
The mark [7] stands for this setting: test compound 1.0 μM; relative to orexin-A as full agonist (100%); CHOOX2R cells.
[8] abbreviates: test compound 10 μM; relative to orexin-A as full agonist (100%); CHOOX2R cells.

In the case of `COc1ccc(-c2cccc(C(=O)N3CCCC3)c2)cc1S(=O)(=O)Nc1cccc(NCCNC(=O)c2sccc2Cl)c1` [Example 89, 3-chloro-N-(2-((3-(4-methoxy-3′-(pyrrolidine-1-carbonyl)-[1,1′-biphenyl]-3-ylsulfonamido)phenyl)amino)ethyl)thiophene-2-carboxamide], the “Response (0.1 μM (%))” value under setting [1] turned out to be 93%. For the same molecule, the “Response (1.0 μM (%))” value under setting [2] was 96%. Besides, the “Response (10 μM (%))” value under setting [3] was 97%.

As a reminder, the EC50 is the concentration needed to bring the measured effect to its halfway point. A low value points to an effect from little substance. What is called Emax is the size of the effect at its maximum, as opposed to the concentration needed. As for `COc1ccccc1C(=O)NCCNc1cccc(NS(=O)(=O)c2cc(-c3cccc(C(=O)N(C)C)c3)ccc2OC)c1` [Example 40, 4′-methoxy-3′-(N-(3-((2-(2-methoxybenzamido)ethyl)amino)phenyl)sulfamoyl)-N,N-dimethyl-[1,1′-biphenyl]-3-carboxamide], a half-maximal response under setting [4] (EC50) required 50 nM. In addition, the Emax under setting [5] came out at 74%. Besides, the “Response (0.1 μM (%))” value under setting [1] is on record as 35%. Also, the “Response (1.0 μM (%))” value under setting [2] is given as 74%. The “Response (10 μM (%))” value under setting [3] came to 74%.

As to `COc1ccc(-c2cccc(C(=O)N3CCC3)c2)cc1S(=O)(=O)Nc1cccc(NCCNC(=O)c2c(OC)cccc2OC)c1` [Example 85, N-(2-((3-(3′-(azetidine-1-carbonyl)-4-methoxy-[1,1′-biphenyl]-3-ylsulfonamido)phenyl)amino)ethyl)-2,6-dimethoxybenzamide], the “Response (0.1 μM (%))” value under setting [1] came out at 19%. The “Response (1.0 μM (%))” value under setting [2] was 90%. Besides, the “Response (10 μM (%))” value under setting [3] is 90%.

As for `COc1ccc(-c2cccc(C(=O)N(C)C)c2)cc1S(=O)(=O)Nc1cccc(NCCNC(=O)c2c(F)cccc2F)c1` [Example 45, 3′-(N-(3-((2-(2,6-difluorobenzamido)ethyl)amino)phenyl)sulfamoyl)-4′-methoxy-N,N-dimethyl-[1,1′-biphenyl]-3-carboxamide], under setting [4], the midpoint of the response, the EC50, lay at 115 nM. The molecule also showed an Emax under setting [5] of 100%. Moreover, the “Response (0.1 μM (%))” value under setting [1] is given as less than 5%. Under setting [2], the “Response (1.0 μM (%))” value was 80%. The “Response (10 μM (%))” value under setting [3] is recorded as 98%.

As to `COc1cccc(C(=O)NCCNc2cccc(NS(=O)(=O)c3cc(-c4cc(F)ccc4F)ccc3OC)c2)c1` [Example 20, N-(2-((3-(2′,5′-difluoro-4-methoxy-[1,1′-biphenyl]-3-ylsulfonamide)phenyl)amino)ethyl)-3-methoxybenzamide], under setting [6], the “Response (0.1 μM (%))” value is recorded as less than 5%. For the same molecule, the “Response (1.0 μM (%))” value under setting [7] is given as 13%. For the same molecule, the “Response (10 μM (%))” value under setting [8] is recorded as 180%.

Regarding `COc1cccc(C(=O)NCCNc2cccc(NS(=O)(=O)c3cc(-c4c(F)cccc4OC)ccc3OC)c2)c1` [Example 24, N-(2-((3-(2′-fluoro-4,6′-dimethoxy-[1,1′-biphenyl]-3-ylsulfonamide)phenyl)amino)ethyl)-3-methoxybenzamide], under setting [6], the “Response (0.1 μM (%))” value is less than 5%. Besides, the “Response (1.0 μM (%))” value under setting [7] was less than 5%. For the same molecule, the “Response (10 μM (%))” value under setting [8] is on record as less than 5%.

On to `COc1cc(C)c(-c2cccc(C(=O)N(C)C)c2)cc1S(=O)(=O)Nc1cccc(NCCNC(=O)c2sccc2Cl)c1` [Example 105, 3-chloro-N-(2-((3-(3′-(dimethylcarbamoyl)-4-methoxy-6-methyl-[1,1′-biphenyl]-3-ylsulfonamido)phenyl)amino)ethyl)thiophene-2-carboxamide], for which the “Response (0.1 μM (%))” value under setting [6] is 78%. Besides, the “Response (1.0 μM (%))” value under setting [7] was 84%. Moreover, the “Response (10 μM (%))” value under setting [8] is 79%.

On to `COc1ccccc1C(=O)NCCNc1cccc(NS(=O)(=O)c2cc(-c3cccc(C(=O)NCC(F)(F)F)c3)ccc2OC)c1` [Example 78, 4′-methoxy-3′-(N-(3-((2-(2-methoxybenzamido)ethyl)amino)phenyl)sulfamoyl)-N-(2,2,2-trifluoroethyl)-[1,1′-biphenyl]-3-carboxamide], for which the “Response (0.1 μM (%))” value under setting [1] is given as less than 5%. Besides, under setting [2], the “Response (1.0 μM (%))” value is 33%. In addition, the “Response (10 μM (%))” value under setting [3] is listed as 49%.

As to `COc1ccccc1C(=O)NCCNc1cccc(NS(=O)(=O)c2cc(-c3cccc(CO)c3)ccc2OC)c1` [Example 39, N-(2-((3-(3′-(hydroxymethyl)-4-methoxy-[1,1′-biphenyl]-3-ylsulfonamide)phenyl)amino)ethyl)-2-methoxybenzamide], under setting [1], the “Response (0.1 μM (%))” value is less than 5%. Besides, the “Response (1.0 μM (%))” value under setting [2] came out at 27%. Moreover, under setting [3], the “Response (10 μM (%))” value was 102%.

As for `COc1ccc(-c2cccc(C(=O)N(C)C)c2)cc1S(=O)(=O)Nc1cccc(NCCNC(=O)c2sccc2Cl)c1` [Example 62, 3-chloro-N-(2-((3-(3′-(dimethylcarbamoyl)-4-methoxy-[1,1′-biphenyl]-3-ylsulfonamido)phenyl)amino)ethyl)thiophene-2-carboxamide], the EC50 under setting [4] stood at 102 nM. Under setting [5], this molecule gave an Emax of 99%. The “Response (0.1 μM (%))” value under setting [1] was determined as 71%. The “Response (1.0 μM (%))” value under setting [2] came out at 92%. Under setting [3], the “Response (10 μM (%))” value amounted to 94%.

As to `COc1ccc(-c2cccc(C(=O)N(C)C)c2)cc1S(=O)(=O)Nc1cccc(NCCNC(=O)c2cncc(Cl)c2)c1` [Example 58, 5-chloro-N-(2-((3-(3′-(dimethylcarbamoyl)-4-methoxy-[1,1′-biphenyl]-3-ylsulfonamido)phenyl)amino)ethyl)nicotinamide], the “Response (0.1 μM (%))” value under setting [1] is given as less than 5%. Also, the “Response (1.0 μM (%))” value under setting [2] was 130%. The “Response (10 μM (%))” value under setting [3] worked out at 119%.

For `COc1ccc(-c2cccc(C(=O)N3CCCC3)c2)cc1S(=O)(=O)Nc1cccc(NCCNC(=O)c2ccccc2Cl)c1` [Example 87, 2-chloro-N-(2-((3-(4-methoxy-3′-(pyrrolidine-1-carbonyl)-[1,1′-biphenyl]-3-ylsulfonamido)phenyl)amino)ethyl)benzamide], under setting [1], the “Response (0.1 μM (%))” value came to 42%. The “Response (1.0 μM (%))” value under setting [2] turned out to be 90%. Besides, the “Response (10 μM (%))” value under setting [3] is listed as 80%.

With `COc1cccc(C(=O)NCCNc2cccc(NS(=O)(=O)c3cc(-c4ccccc4F)ccc3OC)c2)c1` [Example 2, N-(2-((3-(2′-fluoro-4-methoxy-[1,1′-biphenyl]-3-ylsulfonamide)phenyl)amino)ethyl)-3-methoxybenzamide], the “Response (0.1 μM (%))” value under setting [6] is reported as less than 5%. The “Response (1.0 μM (%))” value under setting [7] is 27%. The “Response (10 μM (%))” value under setting [8] came to 67%.

Regarding `COc1ccc(-c2cccc(C(=O)N(C)C)c2)cc1S(=O)(=O)Nc1cccc(NCCNC(=O)c2ccoc2C)c1` [Example 67, N-(2-((3-(3′-(dimethylcarbamoyl)-4-methoxy-[1,1′-biphenyl]-3-ylsulfonamido)phenyl)amino)ethyl)-2-methylfuran-3-carboxamide], the “Response (0.1 μM (%))” value under setting [1] stood at 55%. Also, the “Response (1.0 μM (%))” value under setting [2] was 96%. Under setting [3], the “Response (10 μM (%))” value stood at 76%.

With `COc1ccccc1C(=O)NCCNc1cccc(NS(=O)(=O)c2cc(-c3cccc(C(=O)NCCO)c3)ccc2OC)c1` [Example 74, N-(2-hydroxyethyl)-4′-methoxy-3′-(N-(3-((2-(2-methoxybenzamido)ethyl)amino)phenyl)sulfamoyl)-[1,1′-biphenyl]-3-carboxamide], the “Response (0.1 μM (%))” value under setting [1] is recorded as less than 5%. Also, the “Response (1.0 μM (%))” value under setting [2] is 51%. Further, the “Response (10 μM (%))” value under setting [3] turned out to be 92%.

Consider `COc1ccc(-c2cccc(C(=O)N(C)C)c2)cc1S(=O)(=O)Nc1cccc(NCCNC(=O)c2cccc(F)c2)c1` [Example 52, 3′-(N-(3-((2-(3-fluorobenzamido)ethyl)amino)phenyl)sulfamoyl)-4′-methoxy-N,N-dimethyl-[1,1′-biphenyl]-3-carboxamide], for which the EC50 under setting [4] is 783 nM. Also, the Emax under setting [5] was found to be 84%. Besides, under setting [1], the “Response (0.1 μM (%))” value is listed as 40%. Under setting [2], the “Response (1.0 μM (%))” value is 79%. For the same molecule, the “Response (10 μM (%))” value under setting [3] is recorded as 64%.

Take `COc1cccc(C(=O)NCCNc2cccc(NS(=O)(=O)c3cc(-c4cccc(OC)n4)ccc3OC)c2)c1` [Example 95, 3-methoxy-N-(2-((3-(2-methoxy-5-(6-methoxypyridin-2-yl)phenylsulfonamido)phenyl)amino)ethyl)benzamide]: the “Response (0.1 μM (%))” value under setting [1] is given as less than 5%. Further, the “Response (1.0 μM (%))” value under setting [2] is reported as less than 5%. Under setting [3], the “Response (10 μM (%))” value turned out to be 30%.

With `COc1ccccc1C(=O)NCCNc1cccc(NS(=O)(=O)c2cc(-c3cc(F)ccc3Cl)ccc2OC)c1` [Example 32, N-(2-((3-(2′-chloro-5′-fluoro-4-methoxy-[1,1′-biphenyl]-3-ylsulfonamide)phenyl)amino)ethyl)-2-methoxybenzamide], under setting [6], the “Response (0.1 μM (%))” value is reported as less than 5%. Under setting [7], the “Response (1.0 μM (%))” value is 26%. In addition, the “Response (10 μM (%))” value under setting [8] is 75%.

In the case of `COc1ccc(-c2ccccc2F)cc1S(=O)(=O)Nc1cccc(NCCNC(=O)c2ccccc2Cl)c1` [Example 7, 2-chloro-N-(2-((3-(2′-fluoro-4-methoxy-[1,1′-biphenyl]-3-ylsulfonamide)phenyl)amino)ethyl)benzamide], the “Response (0.1 μM (%))” value under setting [6] came to 10%. Moreover, the “Response (1.0 μM (%))” value under setting [7] is given as 62%. Also, the “Response (10 μM (%))” value under setting [8] was determined as 145%.
